Several values for one entry are separate records, joined by “and”; a condition that tells them apart may be missing. Equal values may be shown once.
Experiments:
Format in all cases: in vivo, rat
[1] = system: male spontaneously hypertensive (SHR) rats; assay: Effect on blood pressure (telemetry) in spontaneously hypertensive rats; conditions: 0.15 mg/kg/day
Source text: Effect of Example 2 on Blood Pressure Male spontaneously hypertensive (SHR) rats weighing 250-300 g with age of 7 weeks are acclimated to a reversed light cycle (8:00 am lights off and 8:00 pm lights on) and fed regular chow and water ad libitum. Implantable telemetry devices (model TA11PA-C40, Data Sciences International) are implanted into the abdominal aorta. After recovering from surgery, rats are placed in individual cages in a quiet telemetry facility room for measuring blood pressure (mean arterial pressure, MAP) and heart rate (HR). Digitized pressure signals are acquired for 20 second every 5 min using DSI Dataquest IV 4.0 software. The 31 SHR rats are randomized by MAP into two groups and treated twice daily for 14 days with vehicle (n=15) (10% acacia, 0.05% antifoam in purified water) or 0.15 mg/kg/day Example 2. The first dose is given between 6:00 and 6:30 am (2 h prior to lights off) and the second dose is given between 4:00 and 4:30 pm. The daily food consumption and body weight gain are also monitored. MAP, HR, and body weight (BW) data are analyzed by repeated measures analysis of covariance (ANCOVA) with baseline as the covariate. Food consumption (FC) data are analyzed by repeated measures analysis of variance (ANOVA). The mean blood pressure across the time course of the study (days 1-14) for the group treated with 0.15 mg/kg/day of Example 2 is 4.83 mm Hg less than that of the control group with a p-value of 0.0007 (Table 1).

male Sprague Dawley rats [2] = assay: Radiolabeled phosphate absorption in rats, Studies 1-3 (plasma radioactivity); conditions: Study 2, rats; for Absorption (vs. vehicle control): mean ± SEM
Description: Effect of Example 2 in Combination with an NPT2b Inhibitor (Compound A) on Phosphate Absorption in Rats
NPT2b inhibitor dosing solutions: Compound A and poly-1-vinylpyrrolidone-co-vinyl acetate (PVP-VA, Sigma-Aldrich) are weighed into a bottle at a ratio of 30% Compound A and 70% PVP-VA by weight. A clear yellow solution is prepared by diluting the mixture in MeOH followed by the addition of 2 mol NaOH per mol Compound A using 5 N NaOH. The solution is spray dried by a stream of hot nitrogen and the solid dispersion powder is collected and then further dried in a vacuum oven. Doses for the sprayed dried solid dispersion (SDD) are expressed as active pharmaceutical ingredient (API) throughout.
To make the Compound A dosing solution, an appropriate amount of Compound A SDD is weighed in a vial and dissolved in water (10 mL/kg dosing volume). […] The subsequent solutions for lower doses are prepared by serial dilutions with water. PVP-VA at 7 mg/mL is used as a vehicle control.
NHE3 inhibitor dosing solutions: To make the Example 2 dosing solution, an appropriate amount of the compound is weighed in a vial and dissolved in 1% HEC (10 mL/kg dosing volume). […] The subsequent solutions for lower doses are prepared by serial dilutions with HEC.
To make the radiolabeled phosphate dosing solution, a 16.25 mM Na2HPO4, 0.9% saline, pH 7.4 solution is prepared and filtered using a sterile, 0.22 μm, polyethersulfone, Millex-GP Syringe Filter Unit (EMD Millipore). Radioactive phosphate (H3^33PO4, Perkin Elmer) is added at about 2.5 μCi per mL of the solution and filtered again.
Three separate studies are performed. In these studies, male Sprague Dawley rats, are randomized into groups with approximately equal mean body weights. Following an overnight fast, all the animals are dosed at 10 mL/kg with either vehicle, varying doses of Compound A (Study 1), varying doses of Example 2 (Study 2) or 1.2 mg/kg Compound A and varying doses of Example 2 (Study 3). 15 min later, radiolabeled phosphate is orally dosed in a 2 mL volume. 15 min later, blood is collected and plasma is prepared. Radioactivity (dpm) in 50 μL plasma is measured by scintillation counting and is used to calculate phosphate absorption. The results are normalized with the vehicle controls representing 100% absorption. The curves are fitted with nonlinear regression with variable slope using GraphPad Prism 6 to calculate the ED50 and Emax given in Table 7. […] No curve fit was performed for Compound A alone in Study 1.

male Sprague Dawley rats [3] = assay: Intestinal phosphate retention: percent radiolabeled dose recovered in gastrointestinal tract; conditions: Example 2 0.4 mg/kg, 4 h after radiolabeled phosphate
Description: The purpose of this study is to investigate in rats the effect of Example 2, Compound A, and an Example 2/Compound A combination on phosphate absorption 15 min after dosing the compounds and the phosphate retained in the intestine 4.25 h after dosing the compounds. The latter is a measure of the oral phosphate load which is absorbed over an extended period.
Two vehicles are used in this study: 1) 1% HEC and 2) 0.46% poly-1-vinylpyrrolidone-co-vinyl acetate in water (PVP-VA vehicle). The vehicle control group in this study receives a 1:1 combination of the two vehicles.
The Example 2, Compound A and phosphate dosing solutions are prepared similarly as described above, except the doses are 0.4 mg/kg for Example 2 and 10 mg/kg for Compound A and they are prepared at a concentration where they would be dosed in a 5 mL/kg volume. The Example 2 and Compound A alone groups are mixed 1:1 with the vehicle of the other compound, while the Compound A and Example 2 are mixed 1:1 prior to dosing. The final dosing volume is 10 mL/kg in all cases.
4 h after the radiolabeled phosphate solution is dosed, stomach, small intestine, large intestine, and feces are collected, weighed and digested with 1N NaOH overnight at 37° C. Radioactivity in each fraction is measured by scintillation counting.
The percent dose recovered in gastrointestinal tract is defined as radioactivity recovered in stomach, small intestine, large intestine and feces compared to the amount dosed. Data is presented as mean±SEM with animal numbers equal to 8 for the groups. Statistical significance is determined by ANOVA with a Dunnett's comparison to the Example 2/Compound A combination using JMP 12.1.
The percent dose recovered in gastrointestinal tract data is further analyzed by a two-way ANOVA in JMP 12.1 to test for additivity of the effects of Example 2 and Compound A on inhibiting phosphate absorption. […] That is, the inhibitory effect of the combination is greater than the sum of the individual compound effects.

CN1Cc2c(Cl)cc(Cl)cc2[C@H](c2cccc(S(=O)(=O)NCCOCCOCCN/C(=N\C(N)=O)NCCCCN/C(=N/C(N)=O)NCCOCCOCCNS(=O)(=O)c3cccc([C@@H]4CN(C)Cc5c(Cl)cc(Cl)cc54)c3)c2)C1.Cl.Cl [Example 2, [[4-[[N′-Carbamoyl-N-[2-[2-[2-[[3-[(4S)-6,8-dichloro-2-methyl-3,4-dihydro-1H-isoquinolin-4-yl]phenyl]sulfonylamino]ethoxy]ethoxy]ethyl]carbamimidoyl]amino]butylamino]-[2-[2-[2-[[3-[(4S)-6,8-dichloro-2-methyl-3,4-dihydro-1H-isoquinolin-4-yl]phenyl]sulfonylamino]ethoxy]ethoxy]ethylamino]methylene]urea dihydrochloride]
Effect on body weight (BW) ([1]; 14 days): No significant effect | Effect on food consumption (FC) ([1]; 14 days): No significant effect | Effect on heart rate (HR) ([1]; 14 days): No significant effect | Difference in mean blood pressure vs vehicle ([1]; days 1-14, less than control, p-value 0.0007): 4.83 mm Hg | Mean blood pressure over days 1-14 ([1]; twice daily for 14 days): 153.33 mm Hg | ED50 (male Sprague Dawley rats [2]; Rattus norvegicus, Example 2 alone): 0.041 mg/kg | Absorption (vs. vehicle control) (male Sprague Dawley rats [2]; Example 2 0.001 mg/kg): 97.16 ± 20.76% | Absorption (vs. vehicle control) (male Sprague Dawley rats [2]; Example 2 0.003 mg/kg): 100.81 ± 20.74% | Absorption (vs. vehicle control) (male Sprague Dawley rats [2]; Example 2 0.01 mg/kg): 75.15 ± 15.52% | Absorption (vs. vehicle control) (male Sprague Dawley rats [2]; Example 2 0.03 mg/kg): 83.17 ± 17.99% | Absorption (vs. vehicle control) (male Sprague Dawley rats [2]; Example 2 0.1 mg/kg): 57.29 ± 11.20% | Absorption (vs. vehicle control) (male Sprague Dawley rats [2]; Example 2 0.3 mg/kg): 71.09 ± 13.98% | Absorption (vs. vehicle control) (male Sprague Dawley rats [2]; Example 2 1 mg/kg): 44.29 ± 9.09% | Absorption (vs. vehicle control) (male Sprague Dawley rats [2]; Example 2 3 mg/kg): 60.04 ± 12.00% | Absorption (vs. vehicle control) (male Sprague Dawley rats [2]; Example 2 10 mg/kg): 63.47 ± 8.39% | % Inhibition at the highest dose (phosphate absorption) (male Sprague Dawley rats [2]; Example 2 highest dose tested (10 mg/kg), dihydrochloride): 37% | Percent Dose Recovered, Feces (male Sprague Dawley rats [3]): <0.1% | Percent Dose Recovered, Large Intestine (male Sprague Dawley rats [3]; mean ± SEM): 18.16 ± 2.58% | Percent Dose Recovered, Small Intestine (male Sprague Dawley rats [3]; mean ± SEM): 8.64 ± 0.32% | Percent Dose Recovered, Stomach (male Sprague Dawley rats [3]; mean ± SEM): 3.9 ± 0.49% | Percent Dose Recovered, Total (male Sprague Dawley rats [3]; mean ± SEM, dihydrochloride, 0.4 mg/kg): 31% and 30.7 ± 2.43%
